ChEMBL document CHEMBL1201862, “PubChem BioAssay data set” (2004)
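Compound exposure: 48 hours, 5 concentrations, 96-well plates. The concentration for 50% growth inhibition is given as GI50.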 Calls of active or inactive are those of the source. Rule as the data show it: active = GI50 up to about 1.1 µM and inactive = higher.

What was measured:
Experiment in all cases: inhibition of tumour cell growth, NCI panel, 48 h
786-0 = tested on: 786-0
A498 = tested on: A498
A549 = tested on: A549
ACHN = tested on: ACHN
BT-549 = tested on: BT-549
CAKI-1 = tested on: CAKI-1
CCRF-CEM = tested on: CCRF-CEM
COLO 205 = tested on: COLO 205
DU-145 = tested on: DU-145
EKVX = tested on: EKVX
HCC 2998 = tested on: HCC 2998
HCT-116 = tested on: HCT-116
HCT-15 = tested on: HCT-15
HL-60 = tested on: HL-60
HOP-62 = tested on: HOP-62
HOP-92 = tested on: HOP-92
HT-29 = tested on: HT-29
Hs-578T = tested on: Hs-578T
IGROV-1 = tested on: IGROV-1
K562 = tested on: K562
KM12 = tested on: KM12
LOX IMVI = tested on: LOX IMVI
M14 = tested on: M14
MCF7 = tested on: MCF7
MDA-MB-231 = tested on: MDA-MB-231
MDA-MB-435 = tested on: MDA-MB-435
MDA-N = tested on: MDA-N
MOLT-4 = tested on: MOLT-4
Malme-3M = tested on: Malme-3M
NCI-H226 = tested on: NCI-H226
NCI-H23 = tested on: NCI-H23
NCI-H460 = tested on: NCI-H460
NCI-H522 = tested on: NCI-H522
NCI/ADR-RES = tested on: NCI/ADR-RES
OVCAR-3 = tested on: OVCAR-3
OVCAR-4 = tested on: OVCAR-4
OVCAR-5 = tested on: OVCAR-5
OVCAR-8 = tested on: OVCAR-8
PC-3 = tested on: PC-3
RPMI-8226 = tested on: RPMI-8226
RXF 393 = tested on: RXF 393
SF-268 = tested on: SF-268
SF-295 = tested on: SF-295
SF-539 = tested on: SF-539
SK-MEL-28 = tested on: SK-MEL-28
SK-MEL-2 = tested on: SK-MEL-2
SK-MEL-5 = tested on: SK-MEL-5
SK-OV-3 = tested on: SK-OV-3
SN12C = tested on: SN12C
SNB-19 = tested on: SNB-19
SNB-75 = tested on: SNB-75
SR = tested on: SR
SW-620 = tested on: SW-620
T47D = tested on: T47D
TK-10 = tested on: TK-10
U-251 = tested on: U-251
UACC-257 = tested on: UACC-257
UACC-62 = tested on: UACC-62
UO-31 = tested on: UO-31

Measured: GI50

C=C(C(=O)OC1C(CO)OC(OCC2CC[C@@H]3C[C@]4(OC(=O)C3=C)C(C)=CC(=O)C24)C(O)C1O)[C@@H]1CCC(CO)C2C(=O)C=C(C)[C@@]2(O)C1 (some centres undefined)
inactive: 786-0 1.63 µM | A498 2.9 µM | A549 4.37 µM | ACHN 1.44 µM | BT-549 1.39 µM | CAKI-1 1.36 µM | DU-145 3.61 µM | EKVX 2.42 µM | HCC 2998 1.61 µM | HCT-116 1.22 µM | HOP-62 9.4 µM | HOP-92 2.63 µM | HT-29 1.73 µM | Hs-578T 4.09 µM | IGROV-1 2.79 µM | KM12 2.55 µM | LOX IMVI 2.18 µM | M14 2.08 µM | MCF7 1.16 µM | MDA-MB-231 1.64 µM | MDA-MB-435 2.09 µM | MDA-N 1.44 µM | Malme-3M 1.46 µM | NCI-H226 6.58 µM | NCI-H23 1.63 µM | NCI-H460 3.3 µM | NCI/ADR-RES 2.19 µM | OVCAR-3 2.02 µM | OVCAR-4 4.01 µM | OVCAR-5 2.7 µM | OVCAR-8 1.43 µM | PC-3 1.54 µM | SF-268 3.4 µM | SF-295 17.1 µM | SK-MEL-28 3.34 µM | SK-MEL-2 2.47 µM | SK-MEL-5 1.29 µM | SK-OV-3 20.4 µM | SN12C 1.32 µM | SNB-19 16.4 µM | SNB-75 13.8 µM | T47D 2.55 µM | TK-10 3.07 µM | U-251 4.68 µM | UACC-257 1.84 µM | UACC-62 1.62 µM | UO-31 1.76 µM
active: CCRF-CEM 269 nM | COLO 205 280 nM | HL-60 592 nM | K562 783 nM | MOLT-4 693 nM | NCI-H522 243 nM | RPMI-8226 356 nM | RXF 393 757 nM | SF-539 482 nM | SR 646 nM | SW-620 603 nM
631 nM: HCT-15
